Measurements reported in patent publication US7605154B2, “Substituted Thiazolo [4,5-d]pyrimidines as protein kinase inhibitors” (Janssen Pharmaceutica N.V., priority 2005, dated 2009).
pIC50: −log10 of the molar value.

Biological target: T1, EGFR (Homo sapiens, UniProt P00533)
T1 construct: started at nucleotide 2189 (corresponding to amino acid 667) and ended at the termination codon; made in house; host or cells: Sf9 insect cells (baculovirus)
Assay: EGFR Kinase Assay
Type: biochemical
Settings: GST-EGFR, 5 μM ATP
From the text: The portion was PCR amplified with primers that added the lambda attB sequences to each end, recombined into an entry vector, then into a, GST destination vector (as described in Gateway Technologies Manual by Invitrogen Corporation, Carlsbad, Calif.).
The destination vector was recombined in the DH10BAC strain of bacteria to produce a bacmid. The bacmid was transfected into Sf 9 cells and the supernatant containing the baculovirus was collected. The GSTEGFR protein was purified using large cultures of Sf 9 cells infected with stock virus. After an appropriate period of time, the cells were collected and lysed. The GSTEGFR was then purified from the lysate on Glutathione-Sepharose columns (as described by Amersham Biosciences, Buckinghamshire, United Kingdom).
The free biotin was separated from the biotinylated polyGluTyr on a gel filtration column.
A mixture of a 10× kinase buffer (500 mM Tris at pH 8.0, 100 mM Magnesium Chloride and 1 mM Sodium Vanadate), DTT (1 mM final from 500 mM stock), ATP (5 μM final from 10 mM stock), biotinylated polyGluTyr (10 μg/μL stock), γ-^33P ATP (10 μCi/μL stock) and water was added to each well (90 μL/well) of a Streptavidin Flashplate (Perkin Elmer, Wellesley, Mass.).
Test compound in 100% DMSO (2 μL) was added to the appropriate wells. Diluted GSTEGFR (1:300 dilution in 50 mM Tris at pH 8.0 and 0.1% bovine serum albumin) (10 μL) was added to the wells to initiate the reactions.
The plates were incubated at 30° C. for 1 hr with shaking. The reacted contents were removed and the plates were sequentially washed three times with a 1×PBS stop buffer (300 μL without Magnesium and Calcium) and 100 mM EDTA. After the final wash, the same stop buffer (200 μL) was added to the wells. The plates were then sealed and read on the TopCount scintillation counter.
Test compounds were assayed in triplicate at 16 concentrations at half-log dilutions starting at 200 uM. A maximum and minimum signal for the assay was determined on each plate. The percent inhibition of a test compound was calculated according to the formula
For a series of test concentrations, the IC50 was derived by graphing percent inhibition against the log of the concentrations tested for a given compound.

T1 sequence (P00533 667-1210 limits assumed): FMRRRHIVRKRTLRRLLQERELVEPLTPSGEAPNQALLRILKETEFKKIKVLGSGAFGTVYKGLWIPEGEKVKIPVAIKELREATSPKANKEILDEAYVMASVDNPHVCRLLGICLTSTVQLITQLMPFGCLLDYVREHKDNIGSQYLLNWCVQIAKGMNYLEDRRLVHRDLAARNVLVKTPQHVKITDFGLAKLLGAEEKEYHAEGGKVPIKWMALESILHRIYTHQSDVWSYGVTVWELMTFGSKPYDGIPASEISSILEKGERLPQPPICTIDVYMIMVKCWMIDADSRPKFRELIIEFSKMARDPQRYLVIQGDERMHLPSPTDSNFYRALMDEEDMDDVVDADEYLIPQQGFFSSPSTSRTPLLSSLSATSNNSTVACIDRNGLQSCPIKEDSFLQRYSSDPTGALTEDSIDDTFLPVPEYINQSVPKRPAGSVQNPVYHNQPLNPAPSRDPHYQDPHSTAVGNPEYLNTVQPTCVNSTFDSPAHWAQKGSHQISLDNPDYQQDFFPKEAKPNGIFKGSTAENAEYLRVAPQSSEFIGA

Row | Compound | pIC50
1 | Fc1ccc(Nc2ncnc3nc(Nc4ccc(N5CCOCC5)cc4)sc23)cc1Cl [Cpd 1, N^7-(3-chloro-4-fluoro-phenyl)-N^2-(4-morpholin-4-yl-phenyl)-thiazolo[4,5-d]pyrimidine-2,7-diamine] | 7.36
2 | CN1CCN(Cc2ccc(Nc3nc4ncnc(Nc5ccc(F)c(Cl)c5)c4s3)cc2)CC1 [Cpd 5, N^7-(3-chloro-4-fluoro-phenyl)-N^2-[4-(4-methyl-piperazin-1-ylmethyl)-phenyl]-thiazolo[4,5-d]pyrimidine-2,7-diamine] | 7.74
3 | COc1cc(Nc2nc3ncnc(Nc4ccc(F)c(Cl)c4)c3s2)ccc1CN1CCCCC1 [Cpd 6, N^7-(3-chloro-4-fluoro-phenyl)-N^2-(3-methoxy4-piperidin-1-ylmethyl-phenyl)-thiazolo[4,5-d]pyrimidine-2,7-diamine] | 7.70
4 | Fc1ccc(Nc2ncnc3nc(Nc4ccc(OCCN5CCCC5)cc4)sc23)cc1Cl [Cpd 15, N^7-(3-chloro-4-fluoro-phenyl)-N^2-[4-(2-pyrrolidin-1-yl-ethoxy)-phenyl]-thiazolo[4,5-d]pyrimidine-2,7-diamine] | 7.05
5 | Fc1ccc(Nc2ncnc3nc(Nc4ccc(CN5CCCCCC5)cc4)sc23)cc1Cl [Cpd 19, N^2-(4-azepan-1-ylmethyl-phenyl)-N^7-(3-chloro-4-fluoro-phenyl)-thiazolo[4,5-d]pyrimidine-2,7-diamine] | 8.22
6 | Fc1ccc(Nc2ncnc3nc(Nc4ccc(CN5CCSCC5)cc4)sc23)cc1Cl [Cpd 20, N7-(3-chloro-4-fluoro-phenyl)-N^2-(4-thiomorpholin4-ylmethyl-phenyl)-thiazolo[4,5-d]pyrimidine-2,7-diamine] | 7.31
7 | NCC1CCN(Cc2ccc(Nc3nc4ncnc(Nc5ccc(F)c(Cl)c5)c4s3)cc2)CC1 [Cpd 22, N^2-[4-(4-aminomethyl-piperidin-1-ylmethyl)-phenyl]-N^7-(3-chloro-4-fluoro-phenyl)-thiazolo[4,5-d]pyrimidine-2,7-diamine] | 8.03
8 | Fc1ccc(Nc2ncnc3nc(Nc4ccc(Cn5ccnc5)cc4)sc23)cc1Cl [Cpd 23, N^7-(3-chloro-4-fluoro-phenyl)-N^2-(4-imidazol-1-ylmethyl-phenyl)-thiazolo[4,5-d]pyrimidine-2,7-diamine] | 8.20
9 | COC[C@@H]1CCCN1Cc1ccc(Nc2nc3ncnc(Nc4ccc(F)c(Cl)c4)c3s2)cc1 [Cpd 26, N^7-(3-chloro-4-fluoro-phenyl)-N^2-[4-(2S)-(2-methoxymethyl-pyrrolidin-1-ylmethyl)-phenyl]-thiazolo[4,5-d]pyrimidine-2,7-diarmine] | 7.93
10 | CCOC(=O)C1CCN(Cc2ccc(Nc3nc4ncnc(Nc5ccc(F)c(Cl)c5)c4s3)cc2)CC1 [Cpd 29, 1-{4-[7-(3-chloro-4-fluoro-phenylamino)-thiazolo[4,5-d]pyrimidin-2-ylamino]-benzyl}-piperidine-4-carboxylic acid ethyl ester] | 7.56
11 | c1ccc(Cn2ncc3ccc(Nc4ncnc5nc(Nc6ccc(CN7CCOCC7)cc6)sc45)cc32)cc1 [Cpd 36, N^7-(1-benzyl-1H-indazol-6-yl)-N^2-(4-morpholin-4-ylmethyl-phenyl)-thiazolo[4,5-d]pyrimidine-2,7-diamine] | 5.99
12 | C#Cc1cccc(Nc2ncnc3nc(Nc4ccc(CN(CCOC)CCOC)cc4)sc23)c1 [Cpd 38, N^2-(4-{[bis-(2-methoxy-ethyl)-amino]-methyl}-phenyl)-N^7-(3-ethynyl-phenyl)-thiazolo[4,5-d]pyrimidine-2,7-diamine] | 7.55
13 | O=S(=O)(NCCN1CCOCC1)c1ccc(Nc2nc3ncnc(Nc4ccc(F)c(Cl)c4)c3s2)cc1 [Cpd 40, 4-[7-(3-chloro-4-fluoro-phenylamino)-thiazolo[4,5-d]pyrimidin-2-ylamino]-N-(2-morpholin-4-yl-ethyl)-benzenesulfonamide] | 8.05
14 | O=S(=O)(NCCCN1CCOCC1)c1ccc(Nc2nc3ncnc(Nc4ccc(F)c(Cl)c4)c3s2)cc1 [Cpd 41, 4-[7-(3-chloro-4-fluoro-phenylamino)-thiazolo[4,5-d]pyrimidin-2-ylamino]-N-(3-morpholin-4-yl-propyl)-benzenesulfonamide] | 8.00

Continued by rising pIC50, values first:

Row | pIC50 | Compound
15 | 6.78 | Fc1ccc(Nc2ncnc3nc(Nc4ccc(OCCCN5CCN(c6ccc(Cl)cc6)CC5)cc4)sc23)cc1Cl [Cpd 16, N^7-(3-chloro-4-fluoro-phenyl)-N^2-(4-{3-[4-(4-chloro-phenyl)-piperazin-1-yl]-propoxy}-phenyl)-thiazolo[4,5-d]pyrimidine-2,7-diamine]
16 | 6.92 | Fc1ccc(Nc2ncnc3nc(Nc4cccc(CN5CCOCC5)c4)sc23)cc1Cl [Cpd 3, N^7-(3-chloro-4-fluoro-phenyl)-N^2-(3-morpholin-4-ylmethyl-phenyl)-thiazolo[4,5-d]pyrimidine-2,7-diamine]
17 | 6.93 | COc1ccc(Nc2nc3ncnc(Nc4ccc(F)c(Cl)c4)c3s2)cc1 [Cpd 12, N^7-(3-chloro4-fluoro-phenyl)-N^2-(4-methoxy-phenyl)-thiazolo[4,5-d]pyrimidine-2,7-diamine]
18 | 7.02 | Oc1ccc(Nc2nc3ncnc(Nc4ccc(F)c(Cl)c4)c3s2)cc1 [Cpd 13, 4-[7-(3-chloro4-fluoro-phenylamino)-thiazolo[4,5-d]pyrimidin-2-ylamino]-phenol]
19 | 7.23 | Fc1ccc(Nc2ncnc3nc(Nc4ccc(OCCN5CCOCC5)cc4)sc23)cc1Cl [Cpd 14, N^7-(3-chloro-4-fluoro-phenyl)-N^2-[4-(2-morpholin-4-yl-ethoxy)-phenyl]-thiazolo[4,5-d]pyrimidine-2,7-diamine]
20 | 7.24 | CCOC(=O)N1CCN(Cc2ccc(Nc3nc4ncnc(Nc5ccc(F)c(Cl)c5)c4s3)cc2)CC1 [Cpd 28, 4-{4-[7-(3-chloro-4-fluoro-phenylamino)-thiazolo[4,5-d]pyrimidin-2-ylamino]-benzyl}-piperazine-1-carboxylic acid ethyl ester]
21 | 7.46 | Clc1cccc(Nc2ncnc3nc(Nc4cccc(CN5CCCCC5)c4)sc23)c1 [Cpd 8, N^7-(3-chloro-phenyl)-N^2-(3-piperidin-1-ylmethyl-phenyl)-thiazolo[4,5-d]pyrimidine-2,7-diamine]
22 | 7.60 | C#Cc1cccc(Nc2ncnc3nc(Nc4ccc(S(=O)(=O)NCCCN(C)C)cc4)sc23)c1 [Cpd 37, N-(3-dimethylamino-propyl)-4-[7-(3-ethynyl-phenylamino)-thiazolo[4,5-d]pyrimidin-2-ylamino]-benzenesulfonamide]
23 | 7.67 | CC1CC(C)CN(Cc2ccc(Nc3nc4ncnc(Nc5ccc(F)c(Cl)c5)c4s3)cc2)C1 (stereo not drawn) [Cpd 24, N^7-(3-chloro-4-fluoro-phenyl)-N^2-[4-(3,5-dimethyl-piperidin-1-ylmethyl)-phenyl]-thiazolo[4,5-d]pyrimidine-2,7-diamine]
24 | 7.74 | Clc1cccc(Nc2ncnc3nc(Nc4ccc(Cc5ccncc5)cc4)sc23)c1 [Cpd 9, N^7-(3-chloro-phenyl)-N^2-(4-pyridin-4-ylmethyl-phenyl)-thiazolo[4,5-d]pyrimidine-2,7-diamine]
25 | 7.82 | CN(C)C(=O)c1ccc(Nc2nc3ncnc(Nc4ccc(F)c(Cl)c4)c3s2)cc1 [Cpd 27, 4-[7-(3-chloro-4-fluoro-phenylamino)-thiazolo[4,5-d]pyrimidin-2-ylamino]-N,N-dimethyl-benzamide]
26 | 7.88 | CN(Cc1ccc(Nc2nc3ncnc(Nc4ccc(F)c(Cl)c4)c3s2)cc1)C1CCCCC1 [Cpd 21, N^7-(3-chloro-4-fluoro-phenyl)-N^2-{4-[(cyclohexyl-methyl-amino)-methyl]-phenyl}-thiazolo[4,5-d]pyrimidine-2,7-diamine]
27 | 7.89 | CCc1nccn1Cc1ccc(Nc2nc3ncnc(Nc4cccc(Cl)c4)c3s2)cc1 [Cpd 7, N^7-(3-chloro-phenyl)-N^2-[4-(2-ethyl-imidazol-1-ylmethyl)-phenyl]-thiazolo[4,5-d]pyrimidine-2,7-diamine]
28 | 7.91 | CN(C)Cc1ccc(Nc2nc3ncnc(Nc4ccc(F)c(Cl)c4)c3s2)cc1 [Cpd 10, N^7-(3-chloro-4-fluoro-phenyl)-N^2-(4-dimethylaminomethyl-phenyl)-thiazolo[4,5-d]pyrimidine-2,7-diamine]
29 | 8.26 | CCc1nccn1Cc1ccc(Nc2nc3ncnc(Nc4ccc(F)c(Cl)c4)c3s2)cc1 [Cpd 30, N^7-(3-chloro-4-fluoro-phenyl)-N^2-[4-(2-ethyl-imidazol-1-ylmethyl)-phenyl]-thiazolo[4,5-d]pyrimidine-2,7-diamine]
30 | 8.60 | O=S(=O)(NCCO)c1ccc(Nc2nc3ncnc(Nc4ccc(F)c(Cl)c4)c3s2)cc1 [Cpd 39, 4-[7-(3-chloro-4-fluoro-phenylamino)-thiazolo[4,5-d]pyrimidin-2-ylamino]-N-(2-hydroxy-ethyl)-benzenesulfonamide]
